# Results: patent US20050197350A1, “Novel quinoline, tetrahydroquinazoline, and pyrimidine derivatives and methods of treatment related to the use thereof” (TAISHO PHARMACEUTICAL CO., LTD., priority 2003, published 2005)
# Tested on: MCH receptors
# Test: MCH receptor activity class (method not given)
# Conditions: class by percent of control at 10^−7 M or IC50
row,Structure (SMILES),class
1,"Cc1cc(N(C)C)nc(N[C@H]2CC[C@@H](NC(=O)C(C)(C)c3ccc(Cl)cc3)CC2)n1 [compound 2949, 2-(4-chlorophenyl)-N-(cis-4-{[4-(dimethylamino)-6-methylpyrimidin-2-yl]amino}cyclohexyl)-2-methylpropanamide]",1 (Class 1: The value of percent of control at 10^−7 M was less than 40% or the value of IC50 was less than 50 nM.)
2,"Cc1cc(N(C)C)nc(N[C@H]2CC[C@@H](NC(=O)Cc3cc(C(F)(F)F)cc(C(F)(F)F)c3)CC2)n1 [compound 2950, 2-[3,5-bis(trifluoromethyl)phenyl]-N-(cis-4-{[4-(dimethylamino)-6-methylpyrimidin-2-yl]amino}cyclohexyl)acetamide]",2 (Class 2: The value of percent of control at 10^−7 M was from 40% to 60% or the value of IC′50 was from 50 nM to 200 nM.)
3,"Cc1cc(N(C)C)nc(N[C@H]2CC[C@@H](NC(=O)c3ccccc3)CC2)n1 [compound 2951, N-(cis-4-{[4-(dimethylamino)-6-methylpyrimidin-2-yl]amino}cyclohexyl)benzamide]",3 (Class 3 The value of percent of control at 10^−7 M was more than 60% or the value of IC50 was more than 200 nM.)
4,CCCCc1ccc(C(=O)N[C@H]2CC[C@@H](Nc3nc(C)cc(N(C)C)n3)CC2)cc1 [compound 2952],3 (Class 3 The value of percent of control at 10^−7 M was more than 60% or the value of IC50 was more than 200 nM.)
5,"Cc1cc(N(C)C)nc(N[C@H]2CC[C@@H](NC(=O)c3cccc(F)c3)CC2)n1 [compound 2953, N-(cis-4-{[4-(dimethylamino)-6-methylpyrimidin-2-yl]amino}cyclohexyl)-3-fluorobenzamide]",2 (Class 2: The value of percent of control at 10^−7 M was from 40% to 60% or the value of IC′50 was from 50 nM to 200 nM.)
6,"Cc1cc(N(C)C)nc(N[C@H]2CC[C@@H](NC(=O)c3cccc(C(F)(F)F)c3)CC2)n1 [compound 2954, N-(cis-4-{[4-(dimethylamino)-6-methylpyrimidin-2-yl]amino}cyclohexyl)-3-(trifluoromethyl)benzamide]",1 (Class 1: The value of percent of control at 10^−7 M was less than 40% or the value of IC50 was less than 50 nM.)
7,COc1ccccc1C(=O)N[C@H]1CC[C@@H](Nc2nc(C)cc(N(C)C)n2)CC1 [compound 2955],3 (Class 3 The value of percent of control at 10^−7 M was more than 60% or the value of IC50 was more than 200 nM.)
8,COc1ccc(C(=O)N[C@H]2CC[C@@H](Nc3nc(C)cc(N(C)C)n3)CC2)cc1 [compound 2956],3 (Class 3 The value of percent of control at 10^−7 M was more than 60% or the value of IC50 was more than 200 nM.)
9,"Cc1cc(N(C)C)nc(N[C@H]2CC[C@@H](NC(=O)c3cccc(C#N)c3)CC2)n1 [compound 2957, 3-cyano-N-(cis-4-{[4-(dimethylamino)-6-methylpyrimidin-2-yl]amino}cyclohexyl)benzamide]",1 (Class 1: The value of percent of control at 10^−7 M was less than 40% or the value of IC50 was less than 50 nM.)
10,"Cc1cc(N(C)C)nc(N[C@H]2CC[C@@H](NC(=O)c3ccc(C#N)cc3)CC2)n1 [compound 2958, 4-cyano-N-(cis-4-{[4-(dimethylamino)-6-methylpyrimidin-2-yl]amino}cyclohexyl)benzamide]",1 (Class 1: The value of percent of control at 10^−7 M was less than 40% or the value of IC50 was less than 50 nM.)
11,"COc1cc(OC)cc(C(=O)N[C@H]2CC[C@@H](Nc3nc(C)cc(N(C)C)n3)CC2)c1 [compound 2959, N-(cis-4-{[4-(dimethylamino)-6-methylpyrimidin-2-yl]amino}cyclohexyl)-3,5-dimethoxybenzamide]",1 (Class 1: The value of percent of control at 10^−7 M was less than 40% or the value of IC50 was less than 50 nM.)
12,"Cc1cc(N(C)C)nc(N[C@H]2CC[C@@H](NC(=O)c3ccc(C(F)(F)F)c(F)c3)CC2)n1 [compound 2960, N-(cis-4-{[4-(dimethylamino)-6-methylpyrimidin-2-yl]amino}cyclohexyl)-3-fluoro-4-(trifluoromethyl)benzamide]",2 (Class 2: The value of percent of control at 10^−7 M was from 40% to 60% or the value of IC′50 was from 50 nM to 200 nM.)
13,Cc1cc(N(C)C)nc(N[C@H]2CC[C@@H](NC(=O)c3ccc(F)c(C(F)(F)F)c3)CC2)n1 [compound 2961],1 (Class 1: The value of percent of control at 10^−7 M was less than 40% or the value of IC50 was less than 50 nM.)
14,"Cc1cc(N(C)C)nc(N[C@H]2CC[C@@H](NC(=O)c3cc(F)cc(C(F)(F)F)c3)CC2)n1 [compound 2962, N-(cis-4-{[4-(dimethylamino)-6-methylpyrimidin-2-yl]amino}cyclohexyl)-3-fluoro-5-(trifluoromethyl)benzamide]",1 (Class 1: The value of percent of control at 10^−7 M was less than 40% or the value of IC50 was less than 50 nM.)
15,Cc1cc(N(C)C)nc(N[C@H]2CC[C@@H](NC(=O)c3ccc(F)c(Cl)c3)CC2)n1 [compound 2963],1 (Class 1: The value of percent of control at 10^−7 M was less than 40% or the value of IC50 was less than 50 nM.)
16,"Cc1cc(N(C)C)nc(N[C@H]2CC[C@@H](NC(=O)c3ccc(F)c(C)c3)CC2)n1 [compound 2964, N-(cis-4-{[4-(dimethylamino)-6-methylpyrimidin-2-yl]amino}cyclohexyl)-4-fluoro-3-methylbenzamide]",1 (Class 1: The value of percent of control at 10^−7 M was less than 40% or the value of IC50 was less than 50 nM.)
17,"Cc1cc(N(C)C)nc(N[C@H]2CC[C@@H](NC(=O)c3ccc(C)c(F)c3)CC2)n1 [compound 2965, N-(cis-4-{[4-(dimethylamino)-6-methylpyrimidin-2-yl]amino}cyclohexyl)-3-fluoro-4-methylbenzamide]",1 (Class 1: The value of percent of control at 10^−7 M was less than 40% or the value of IC50 was less than 50 nM.)
18,"Cc1cc(N(C)C)nc(N[C@H]2CC[C@@H](NC(=O)c3cc(Cl)cc(Cl)c3)CC2)n1 [compound 2966, 3,5-dichloro-N-(cis-4-{[4-(dimethylamino)-6-methylpyrimidin-2-yl]amino}cyclohexyl)benzamide]",1 (Class 1: The value of percent of control at 10^−7 M was less than 40% or the value of IC50 was less than 50 nM.)
19,"Cc1cc(N(C)C)nc(N[C@H]2CC[C@@H](NC(=O)c3cccc(OC(F)(F)F)c3)CC2)n1 [compound 2967, N-(cis-4-{[4-(dimethylamino)-6-methylpyrimidin-2-yl]amino}cyclohexyl)-3-(trifluoromethoxy)benzamide]",1 (Class 1: The value of percent of control at 10^−7 M was less than 40% or the value of IC50 was less than 50 nM.)
20,"Cc1cc(N(C)C)nc(N[C@H]2CC[C@@H](NC(=O)c3cc(F)cc(F)c3)CC2)n1 [compound 2968, N-(cis-4-{[4-(dimethylamino)-6-methylpyrimidin-2-yl]amino}cyclohexyl)-3,5-difluorobenzamide]",1 (Class 1: The value of percent of control at 10^−7 M was less than 40% or the value of IC50 was less than 50 nM.)
21,"Cc1cc(N(C)C)nc(N[C@H]2CC[C@@H](NC(=O)c3ccc(Br)c(C)c3)CC2)n1 [compound 2969, 4-bromo-N-(cis-4-{[4-(dimethylamino)-6-methylpyrimidin-2-yl]amino}cyclohexyl)-3-methylbenzamide]",1 (Class 1: The value of percent of control at 10^−7 M was less than 40% or the value of IC50 was less than 50 nM.)
22,"CCc1cccc(C(=O)N[C@H]2CC[C@@H](Nc3nc(C)cc(N(C)C)n3)CC2)c1 [compound 2970, N-(cis-4-{[4-(dimethylamino)-6-methylpyrimidin-2-yl]amino}cyclohexyl)-3-ethylbenzamide]",3 (Class 3 The value of percent of control at 10^−7 M was more than 60% or the value of IC50 was more than 200 nM.)
23,CCOc1ccc(C(=O)N[C@H]2CC[C@@H](Nc3nc(C)cc(N(C)C)n3)CC2)cc1 [compound 2971],3 (Class 3 The value of percent of control at 10^−7 M was more than 60% or the value of IC50 was more than 200 nM.)
24,"Cc1cc(N(C)C)nc(N[C@H]2CC[C@@H](NC(=O)c3ccc(C(F)(F)F)cc3)CC2)n1 [compound 2972, N-(cis-4-{[4-(dimethylamino)-6-methylpyrimidin-2-yl]amino}cyclohexyl)-4-(trifluoromethyl)benzamide]",2 (Class 2: The value of percent of control at 10^−7 M was from 40% to 60% or the value of IC′50 was from 50 nM to 200 nM.)
25,"Cc1cc(N(C)C)nc(N[C@H]2CC[C@@H](NC(=O)c3ccc(Br)cc3)CC2)n1 [compound 2973, 4-bromo-N-(cis-4-{[4-(dimethylamino)-6-methylpyrimidin-2-yl]amino}cyclohexyl)benzamide]",1 (Class 1: The value of percent of control at 10^−7 M was less than 40% or the value of IC50 was less than 50 nM.)
26,"CCc1ccc(C(=O)N[C@H]2CC[C@@H](Nc3nc(C)cc(N(C)C)n3)CC2)cc1 [compound 2974, N-(cis-4-{[4-(dimethylamino)-6-methylpyrimidin-2-yl]amino}cyclohexyl)-4-ethylbenzamide]",2 (Class 2: The value of percent of control at 10^−7 M was from 40% to 60% or the value of IC′50 was from 50 nM to 200 nM.)
27,"CCOc1cc(OCC)cc(C(=O)N[C@H]2CC[C@@H](Nc3nc(C)cc(N(C)C)n3)CC2)c1 [compound 2975, N-(cis-4-{[4-(dimethylamino)-6-methylpyrimidin-2-yl]amino}cyclohexyl)-3,5-diethoxybenzamide]",1 (Class 1: The value of percent of control at 10^−7 M was less than 40% or the value of IC50 was less than 50 nM.)
28,"CCOc1cccc(C(=O)N[C@H]2CC[C@@H](Nc3nc(C)cc(N(C)C)n3)CC2)c1 [compound 2976, N-(cis-4-{[4-(dimethylamino)-6-methylpyrimidin-2-yl]amino}cyclohexyl)-3-ethoxybenzamide]",2 (Class 2: The value of percent of control at 10^−7 M was from 40% to 60% or the value of IC′50 was from 50 nM to 200 nM.)
29,"Cc1cc(N(C)C)nc(N[C@H]2CC[C@@H](NC(=O)c3cccc(OC(C)C)c3)CC2)n1 [compound 2977, N-(cis-4-{[4-(dimethylamino)-6-methylpyrimidin-2-yl]amino}cyclohexyl)-3-isopropoxybenzamide]",1 (Class 1: The value of percent of control at 10^−7 M was less than 40% or the value of IC50 was less than 50 nM.)
